Marks after values point to notes of the source that are not given here.
Key:
Assay type in all cases: cell-based
[1] = tested on: living human skin explants; test: Biochemical assay of MDA (lipid peroxidation) on living human skin explants exposed to pollutants
Procedure: Product A (Table 11) was diluted in water to obtain the following products at concentrations: product P1=A at 4%, product P2=A at 2% and product P3=A at 1%.
59 human skin explants of an average diameter of 14 mm (±1 mm) were prepared on an abdoplasty coming from a person. The explants were kept in survival in BEM culture medium at 37° C. in a humid, 5%-CO2 atmosphere.
The tested products were topically applied on the basis of 2 μl per cm^2 and spread using a small spatula twice a day (morning and evening) on day 0, 1, 2, 3 and 4.
On D4, the explants of the batches ML and PML were placed on the 3D grid with 900 μl of HBSS and placed into the PolluBox® system.
3 mL of the solution <<ML>> (supplemented with 150 μl/ml of NaCl 0.9%) were exposed by vaporization for 1 hour and half, as shown in the figure below.
The MDA assay was realized with an enhanced method of the TBARs (Thiobarbituric Acid Reactive Species) assay. The MDA was assayed in HBSS medium by addition of TBARs solution (thiobarbituric acid, hydrochloric acid and tricholoroacetic acid) and placed in a water bath (80° C. for 15 minutes). A lot of substances (like glucose) which are not related with lipoperoxidation, react with thiobarbituric acid (ThioBarbituric Acid Reagents=TBARS), so to enhance the specificity of the assay, the MDA was extracted by a liquid/liquid extraction with butanol. The MDA in butanol was measured in spectrofluorimetry (excitation: 515 nm, emission: 550 nm) using a Tecan Infinite M200 Pro microplate reader. Using this assay, MDA contained in the culture medium BEMc on […] was measured for the 4 explants per batch. The MDA concentration was expressed in pmol of MDA/ml of the medium. Concerned batches: all batches on day 5, 4 explants per batch.
The average of the blank batch TJ5 was calculated (154.0 nmol/L). Then, for each explant of MLJ5, this average value was subtracted from […]. That corresponds to calculating the delta (increase) of MDA induced by ML for each explant compared to the average of the batch without ML, it is ΔML.
These average deltas were then compared to the average delta of MDA induction without treatment (ΔML).

[2] = tested on: human living skin explant; test: TUNEL assay (UV-induced DNA damage) on human living skin explants
Procedure: (§1) human skin explants of an average diameter of 12 mm (±1 mm) were prepared on an abdoplasty coming from a person). The explants were kept in survival in BEM culture medium at 37° C. in a humid, 5%-CO2 atmosphere.
(§2) On day 0 (D0), day 1, day 2 and day 3 (3 hours before irradiation), the tested products were applied topically on surface of skin explants at the rate of 2 mg/cm^2, twice a day for D1 and D2 and once on DO and D3. […] The medium was half renewed (1 ml per well) on day 2.
(§3) On D3, the culture media of all the batches was replaced by HBSS solution (Hank's Balanced Saline Solution; 1 ml per explant). The batches “UV” were irradiated by UVA+ UVB using a UV simulator Vibert Lourmat RMX 3W with a dose of 18 J/cm2 of UVA (4 MED, minimal erythemal dose) and 0.3 J/cm2 of UVB (2 MED). The unirradiated batches were kept in HBSS in the dark. At the end of the irradiation the explants were put back in 2 mL of BEM medium.
(§4) After fixation for 24 hours in buffered formalin, the samples were dehydrated and impregnated in paraffin using a Leica PEARL dehydration automat. The samples were embedded using a Leica EG 1160 embedding station. 5-μm-thick sections were made using a Leica RM 2125 Minot-type microtome, and the sections were mounted on Superfrost® histological glass slides. The frozen samples were cut into 7-μm-thick sections using a Leica CM 3050 cryostat. Sections were then mounted on Superfrost® plus silanized glass slides. The microscopical observations were realized using a Leica DMLB or Olympus BX43 microscope. Pictures were digitized with a numeric DP72 Olympus camera with CellD storing software.
DNA oxidization is a type of damage that can be promoted by reactive oxygen species (ROS), generated by UV exposure. […] The staining was assessed by microscopical observation. Batches analyzed were T, TUV, P1UV, P2UV, P3UV at day 4 also referred to as TJ4, TUVJ4, P1UVJ4, P2UVJ4, P3UVJ4 (T=Control batch non treated non irradiated; TJ4=T at Day 4 (D4); TUV: control batch non treated UV irradiated; TUVJ4=[…] at Day 4; P1J4: product A 4% non irradiated at D4; P2J4: product A 2% non irradiated at D4; P3J4: product A 1% non irradiated at D4; P1UV: product A 4% UV irradiated; P1UVJ4: product A 4% UV irradiated at D4 P2UV: product A 2% UV irradiated; P2UVJ4: product A 2% UV irradiated at D4; P3UV: product A 1% UV irradiated; P3UVJ4: product A 1% UV irradiated at D4

[3] = tested on: human living skin explant; test: Immunostaining of carbonylated proteins (FTZ) on human living skin explants; details: UV irradiated
Procedure: as §1, §2, §3, §4
Protein carbonylation is a type of protein oxidation that can be promoted by reactive oxygen species (ROS), generated by UV exposure. FTZ marker assay was conducted by immunostaining in the living epidermis of human skin explant as follows: Carbonylated proteins were stained on frozen sections with the anti-carbonylated proteins probe (fluorescein-5-thiosemicarbazid-FTZ) (Lifetechnologies, Ref. F-121) diluted at 0.5 μM in MES-Na+ and incubated for 30 minutes in the dark and at room temperature. The staining was observed by epifluorescence and assessed by microscopical observations. Batches analyzed were T, TUV, P1UV, P2UV, P3UV at day 4 also referred to as TJ4, TUVJ4, P1UVJ4, P2UVJ4, P3UVJ4

[4] = tested on: human living skin explant; test: Cell viability of human living skin explants (UV study); details: day 4
Procedure: as §1, §2, §3, §4

[5] = tested on: Reconstructed Human Epidermis (RHE); test: Caffein diffusion test on Reconstituted Human Epidermis (RHE); details: for caffein diffusion through RHE: systemic treatment
Procedure: By measuring the amount of […] […] The epidermis used was a Reconstructed Human Epidermis, called “RHE”, 0-day-old, batch no 01015-444, placed in culture conditions 37° C., 5% CO2. The assay medium was the Bioalternatives maintenance medium. RHE at Day 0 (when placed at the air/liquid interface) were placed in assay medium containing or not (control) the compounds, the combination or the reference (vitamin C at 200 μg/ml). This is referred to as a systemic application, to be differentiated from a topical application. RHE were then incubated for 7 days with treatment renewal at Day 3 and Day 5. All experimental conditions were performed in n=3. At the end of incubation (Day 7), radioactive […] ([^14[…] applied on the surface of each epidermis. The radioactivity contained in subnatants was measured by liquid scintillation after 30 minutes, 1, 2, 3, 4, 5, 6, 7 and 8 hours of incubation. The barrier function is calculated according to the below formula:

O=C(O)[C@@H]1CCCN1 [Combination P5, L-Proline]
MDA, variation ΔPML vs ΔML ([1]; MDA induction by pollutants, day 5): −48%*
reduction of the increase of MDA ([1]; after pollutant exposure (ΔPML vs ΔML)): 48%
MDA, variation PML vs ML ([1]; after pollutants exposure, day 5): −14% #
activity against UV-induced DNA damage ([2]; UV irradiated): totally inhibits the increase of DNA damage
DNA damage (TUNEL), variation vs TJ4 ([2]; non irradiated, day 4): ↔ (indicates no variation)
effect on UV-induced carbonylated proteins [3]: slightly inhibits the formation of carbonylated proteins
Cell Viability, variation vs TUVJ4 ([4]; UV irradiated): ↔ (indicates no variation)
Cell Viability, variation vs TJ4 ([4]; non irradiated): ↔ (indicates no variation)

C[N+](C)(C)CC(=O)O [betaine]
Barrier function % Control ([5]; 0.5 hrs, 10 mg/ml): 97%
Mean [14C]-caffein (cpm) ([5]; 0.5 hrs, 10 mg/ml): 20507 cpm
[14C]-caffein % Control ([5]; 0.5 hrs, 10 mg/ml): 104%
Barrier function % Control ([5]; 1 hrs, 10 mg/ml): 91%
Mean [14C]-caffein (cpm) ([5]; 1 hrs, 10 mg/ml): 50356 cpm
[14C]-caffein % Control ([5]; 1 hrs, 10 mg/ml): 110%
Barrier function % Control ([5]; 2 hrs, 10 mg/ml): 85%
Mean [14C]-caffein (cpm) ([5]; 2 hrs, 10 mg/ml): 117502 cpm
[14C]-caffein % Control ([5]; 2 hrs, 10 mg/ml): 117%
Barrier function % Control ([5]; 3 hrs, 10 mg/ml): 87%
Mean [14C]-caffein (cpm) ([5]; 3 hrs, 10 mg/ml): 156579 cpm
[14C]-caffein % Control ([5]; 3 hrs, 10 mg/ml): 114%
Barrier function % Control ([5]; 4 hrs, 10 mg/ml): 91%
Mean [14C]-caffein (cpm) ([5]; 4 hrs, 10 mg/ml): 173278 cpm
[14C]-caffein % Control ([5]; 4 hrs, 10 mg/ml): 110%
Barrier function % Control ([5]; 5 hrs, 10 mg/ml): 92%
Mean [14C]-caffein (cpm) ([5]; 5 hrs, 10 mg/ml): 186588 cpm
[14C]-caffein % Control ([5]; 5 hrs, 10 mg/ml): 108%
Barrier function % Control ([5]; 6 hrs, 10 mg/ml): 93%
Mean [14C]-caffein (cpm) ([5]; 6 hrs, 10 mg/ml): 193499 cpm
[14C]-caffein % Control ([5]; 6 hrs, 10 mg/ml): 107%
Barrier function % Control ([5]; 7 hrs, 10 mg/ml): 96%
Mean [14C]-caffein (cpm) ([5]; 7 hrs, 10 mg/ml): 196233 cpm
[14C]-caffein % Control ([5]; 7 hrs, 10 mg/ml): 104%
Barrier function % Control ([5]; 8 hrs, 10 mg/ml): 99%
Mean [14C]-caffein (cpm) ([5]; 8 hrs, 10 mg/ml): 195439 cpm
[14C]-caffein % Control ([5]; 8 hrs, 10 mg/ml): 101%
caffein diffusion through RHE ([5]; 3 mg/ml): induced a decrease of caffein diffusion through the RHE only after 30 minutes
caffein diffusion through RHE ([5]; 10 mg/ml): No inhibitory effect

O=C1O[C@H]([C@@H](O)CO)C(O)=C1O [vitamin C]
caffein diffusion through RHE ([5]; 200 μg/ml): decreased significantly this diffusion
